Legend:
α-synuclein = test: Cellular accumulation of α-synuclein (Western blot) in SH-SY5Y cells; type: cell-based, human; conditions: 1 mM, 96 h incubation
Experimental: Cells were incubated under the same conditions as above with furosemide pyridinium (1 mM, incubation: 96 h) and MPP+ (1 mM, incubation: 6 h, wait 24 h). After incubation, the cells were trypsinized, rinsed with PBS, counted, then harvested in 100 μl of buffer containing: 250 mM sucrose; 70 mM KCl; 137 mm NaCl; 4.3 mm NaH2PO4; 1.4 mm KH2PO4, pH 7.2; and […] digitonin. Incubation at 4° C. was then conducted for 5 minutes before centrifuging at 13,000 g for 5 minutes to separate the cytosolic and lysosomal fraction from the mitochondrial fraction. Deposits of cytosolic fraction in the Western blot were adjusted according to the number of cells. The protein samples were diluted in 4× Laemmli and were then heated for 3 minutes at 95° C. to denature. They were loaded into the wells of gel. In addition to the samples, a molecular weight marker (Fermentas) was deposited in the gel. […] The transfer was carried out on PVDF membrane. The transfer was done in transfer buffer (25 mM Tris, 192 mM glycine, 10% methanol) overnight at 4° C. and 30V or for 2 hours at 4° C. and 80V. […] Then the membranes were immunolabeled for 1.5 h at room temperature with a primary antibody diluted in 1×PBS/0.2% Tween/3% milk. […] The primary antibody used was anti-α-synuclein, 1:500 (visualized with an anti-rabbit secondary antibody, 1:10,000).

tyrosine hydroxylase = test: Immunohistochemistry of tyrosine hydroxylase in exposed mice; type: in vivo, mouse; conditions: 20 mg/kg/day oral 7 days, 30 days after end of exposure
Experimental: (§1) Swiss mice were divided into two groups of five animals (experimental and control). The experiments were performed independently two times. The mice of the experimental group were exposed to furosemide pyridinium for 7 days at a daily dose of 20 mg/kg. The furosemide pyridinium was administered orally in the drinking water. The mice were sacrificed 30 days after the end of the furosemide pyridinium treatment.
For this, the mice were anesthetized with pentobarbital (50 mg/Kg), then an intracardiac infusion of NaCl (0.9%) was administered, followed by fixation by an infusion of 4% paraformaldehyde in 0.1M phosphate buffer, pH 7.2. The brain was removed, placed in NaCl (0.9%) at 4° C., and frozen in Tissue Tek immersed in a cold isopentane bath. Coronal sections of eight microns were obtained using a cryostat and were processed for immunohistochemistry (labeling the tyrosine hydroxylase and the Ser129-phosphorylated alpha-synuclein).

mice = test: Lethality of 7-day oral administration in mice; type: in vivo, mouse; conditions: daily dose of 20 mg/kg for seven days
Experimental: as §1

`NS(=O)(=O)c1cc(C(=O)[O-])c(-[n+]2cccc(O)c2)cc1Cl` [furosemide pyridinium, 4-chloro-2-(3-hydroxypyridinium-1-yl)-5-sulfamoylbenzoate] was tested, and the “increase in the total amount of α-synuclein compared to control cells” value (α-synuclein) was 40%, the “labeling of tyrosine hydroxylase in the striata” value (tyrosine hydroxylase) was “net reduction” and the lethality (mice) was “not lethal”.
